Reference: patent US20140120106A1, “Stimulation of Arterial Collateral Growth and Lymphogenesis” (YALE UNIVERSITY, priority 2011, published 2014)

Legend:
HUVEC [1] = assay: qPCR of lymphatic fate genes in RAF1-transduced HUVEC treated with pathway inhibitors for 24 hours; assay type: cell-based, Human; settings: HUVEC with GFP or RAF1S259A adenovirus, Rapamycin 10 nM, AKT inhibitor VIII 1 μM
Protocol: ERK activation was quantified by densitometry and is represented as ratio of pERK1/2 versus total ERK1/2. Immunofluorescence staining showing higher P-ERK1/2 in β-GAL positive endothelial cells of E12.5 S259A embryos. jv, jugular vein. FIGS. 10B-10E are graphs showing HUVEC transduced with control, wild type Raf1 or RAF1S259A lentiviruses treated with DMSO, MEK inhibitor U0126 (10 μM) or PI3K inhibitor LY294002 (10 μM) for 24 hours. Sox18 (FIG. 10B), Prox1 (Figure), Vegfr3 (FIG. 10D) and Lyve1 (10E) expression was assessed by qPCR. FIGS. 10E-10H are graphs showing HUVEC transduced with GFP or RAF1S259A adenoviruses treated with DMSO, Rapamycin (10 nM), AKT inhibitor VIII (1 μM) and LY294002 (10 μM) for 24 hours. Sox18 (FIG. 10F), Prox1 (FIG. 10G) and Coup-TFII (FIG. 10H) expression assessed by qPCR. Data are Mean±SEM (n=3).*, p<0.05; **, p<0.01.
(§1) Total RNA was purified using a QiagenRNeasyPlus Mini kit. cDNA was synthesized using a Bio-Rad iScript cDNA Synthesisis kit. qPCR was performed using a Bio-Rad iQ SYBR Green Supermix on a Bio-Rad CFX96 Real Time System. For immunoblot, cells were lysed in RIPA buffer supplemented with protease and phosphatase inhibitors. Cell lysates were then separated with 4-20% gradient gel (Bio-Rad) and subjected to immunoblot.

HUVEC [2] = assay: Migration (wound healing) assay; assay type: cell-based, Human; settings: under stimulation of serum, 18 hours
ERK = ERK activation by western blot in HUVEC infected with RAF1 WT or RAF1 S259A lentivirus; assay type: cell-based, Human
HUVEC [3] = assay: Matrigel tube formation assay; assay type: cell-based, Human; settings: overexpression in HUVEC, 8 hours
14-3-3 = assay: Immunoprecipitation of HA-RAF1 from HUVEC, western blot for 14-3-3; assay type: binding, Human; settings: anti-HA immunoprecipitation
HUVEC [4] = assay: Apoptosis assay (serum withdrawal, Annexin V/PI flow cytometry); assay type: cell-based, Human; settings: serum-starved 48 hours, vehicle, versus empty control lentivirus
[5] = system: VE-cadherin-tTA/RAF1S259A double transgenic embryos; assay: Endothelial-specific RAF1S259A transgenic mice (Noonan syndrome mouse model); assay type: in vivo; settings: primary EC purified from E12.5 S259A embryos versus control littermates
From the text: Human wild type Raf1 and RAF1S259A plasmids were gifts of Dr. Guri Tzivion (Wayne State University). To generate RAF1S259A transgenic mice, hRAF1S259A was cloned to NotI+PstI sites of pBI-G Tet-off vector (Clontech). TRE-RAF1S259A transgenic mouse line was then generated at the Yale Animal Genomics Services center. VE-cadherin-tT A mice (Sun, et al. Proc Natl Acad Sci USA 102:128-133 (2005)) were from W. Sessa lab (Yale). Time-mating was setup by intercross of male TRE-RAF1 S259A mice with VE-cadherin-tTA female mice. For paraffin and frozen sections, embryos were fixed in 4% paraformaldehyde for overnight at 4° C.
Primary mouse endothelial cells were isolated from E12.5 embryos using a protocol similar to that described by Ren, et al. J Clin Invest 120:1217-1228 (2010). Briefly, E12.5 embryos were harvested, minced finely with scissors, and then digested in 25 ml collagenase 0.2% (w/v) at 37° C. for 20 minutes. The crude cell preparation was pelleted and resuspended in DPBS. The cell suspension was incubated with CD31-coated beads (Invitrogen) at room temperature for 10 minutes with rotation. Using a magnetic separator, the bead-bound cells were recovered, washed with DMEM-20% FBS. The cells were then used for gene expression analysis by qPCR.

HUAEC = assay: qPCR of Prox1 in lentivirus-transduced HUAEC; assay type: cell-based, Human; settings: HUAEC transduced with lentivirus
From the text: Raf1 lentiviruses were produced in 293A cells (Invitrogen) by co-transfection of pLVX-HA-Raf1 WT or S259A with lentiviral packaging plasmids pMD2.G, pRSV-REV and pMDLg/pRRE (Addgene) as described by Dull, J Virol 72:8463-8471 (1998). Control lentivirus was also made using an empty vector pLVX-IRES-puro. Ad-MEK1 CA was from Cell Biolabs, Inc. Ad-Mek1 DN was purchased from Vector Biolabs. All adenoviruses were produced, amplified and purified as described by Dull 1998; Luo, et al. Nat Protoc 2:1236-1247 (2007). For lentiviral infection, cells were incubated with lentivirus in growth medium in the presence of 8 μg/ml polybrene (Sigma) for 8 hours. For adenoviral infection, cells were incubated with adenovirus (MOI=100) in growth medium for overnight.
as §1

Akt1-/- cells = assay: Dll4 expression in AKT+/+ and AKT-/- cells expressing RAF1 constructs; assay type: cell-based
From the text: FIGS. 3A to 3M show expression of Dll4 (FIG. 3A), Hey 1 (FIG. 3B), Hey 2 (FIG. 3C), Hes 1 (FIG. 3D), Coup-TFII (FIG. 3E), EphB4 (FIG. 3F), Dll1 (FIG. 3G), Ephrin B2 (FIG. 3G), Notch 1 (FIG. 3I), Notch 4 (FIG. 3J), Jagged 1 (FIG. 3K), FLK1 (FIG. 3L), Nrp1 (3N) and Flt4 (3N).

HDLEC [6] = assay: qPCR of lymphatic fate genes in adenovirus-transduced HDLEC; assay type: cell-based, Human
HUVEC [7] = assay: Western blot of DLL4, cleaved NOTCH1 and ERK in RAF1 virus infected HUVEC; assay type: cell-based, Human
HUVEC [8] = assay: qPCR of lymphatic fate genes in virus-transduced HUVEC; assay type: cell-based, Human
HUVEC [9] = assay: qPCR of artery-vein specification genes in lentivirus infected HUVEC; assay type: cell-based, Human
HUVEC [10] = assay: Proliferation assay (cell counting); assay type: cell-based, Human; settings: overexpression in HUVEC
HDLEC [11] = assay: Sox18 expression in serum starved HDLEC stimulated with VEGF-C; assay type: cell-based, Human; settings: 100 ng/ml VEGF-C
Protocol: FIGS. 11A-11J are graphs showing excessive ERK activation is the basis of lymphatic abnormalities in Noonan syndrome. HUVEC (FIGS. 11A-11D) and HDLEC (FIGS. 11E-11H) were transduced with adenovirus expressing lacZ, cytosolic localized constitutive active ERK (ME) or nuclear localized constitutive active ERK (LA). Sox18 (FIGS. 11A and 11E), Prox1 (FIGS. 11B and 11F), Vegfr3 (FIGS. 11C and 11G) and Lyve1 (FIGS. 11D and 11H) expression were assessed by qPCR. Data are Mean±SEM (n=3). FIG. 11I is a graph of serum starved HDLEC stimulated with 100 ng/ml VEGF-C for an indicated time in the presence of […] (10 μM) or an equal volume of DMSO. Sox18 expression was assessed by qPCR. Data are Mean±SEM (n=3). FIG. 11J is a graph of lymphatic vessel diameter calculated by whole mount staining of skin vasculature of E14.5 embryos treated with MEK inhibitor U0126 or DMSO. Statistical significance was determined by two-tailed t-test (Control, n=5 embryos; S259A, n=3 embryos).
as §1

[12] = serum-starved HUVEC, 50 ng/ml VEGF-A164
[13] = HDLEC transduced with the named construct
[14] = adenovirus MOI 0, 5, 10, 50 for 48 hours, HUVEC
[15] = HUVEC transduced with the named construct
[16] = lentivirus infected HUVEC, qPCR

## O=c1[nH]c2ccccc2n1C1CCN(Cc2ccc(-c3nc4cc5[nH]cnc5cc4nc3-c3ccccc3)cc2)CC1 [AKT inhibitor VIII]
HUVEC [1]
  Coup-TFII expression: significantly inhibited
  Prox1 expression: significantly inhibited
  Sox18 expression: slightly inducing

## RAF1 S259A: RAF1 Ser259 to Ala259 mutant, not inhibited by AKT; expressed from lentivirus, adenovirus or endothelial transgene
HUVEC [2]
  cell migration: significantly promoted
ERK; overexpression in HUVEC by lentivirus
  ERK activation: constitutive activation
ERK; [12]
  Akt signaling: remains normal
  Erk activation: constitutive activation
HUVEC [3]
  tube formation (tube length): significantly improved
14-3-3
  co-immunoprecipitation with 14-3-3: did not
HUVEC [4]
  cell survival: significantly higher survival
[5]
  Sox18 levels: significantly higher
HUAEC
  Prox1 expression: upregulated
Akt1-/- cells
  DLL4 expression: strongly induced
HDLEC [6]; HDLEC transduced with adenovirus
  Prox1 expression: not
HDLEC [6]; [13]
  Lyve1 expression: Increased expression
  Sox17 expression: significant increase
  Sox18 expression: significant increase
  Vegfr3 expression: Increased expression
HUVEC [7]; HUVEC
  NOTCH1 activation (cleaved NOTCH1): activated
HUVEC [7]; [14]
  DLL4 protein: dose-dependent and parallel increase
  ERK activity: dose-dependent and parallel increase
HUVEC [7]; lentivirus overexpression in HUVEC
  Dll4 protein: dramatically increased
HUVEC [8]; HUVEC transduced with lentivirus
  Sox7 expression: unchanged
HUVEC [8]; [15]
  Lyve1 expression: Increased expression
  Prox1 expression: upregulated
  Sox17 expression: significant increase
  Sox18 expression: significant increase
  Vegfr3 expression: Increased expression
HUVEC [8]; in vitro or in vivo
  Coup-TFII levels: no significant effect
HUVEC [9]; Raf1SA introduction
  Egr1 expression: activated expression
  Ets1 expression: activated expression
  Sox7 expression: not changed
  Sox18 expression: activated expression
HUVEC [9]; [16]
  Coup-TFII (venous marker) gene expression: no changes
  Dll1 gene expression: not affected
  Dll4 gene expression: dramatically induced
  EphB4 (venous fate gene) expression: no changes
  Ephrin B2 gene expression: dramatically induced
  Flk1 gene expression: induced
  Flt4 gene expression: induced
  Hes1 gene expression: dramatically induced
  Hey1 gene expression: dramatically induced
  Hey2 gene expression: dramatically induced
  Jagged1 gene expression: dramatically induced
  Notch4 gene expression: dramatically induced
  neuropilin1 (Nrp1) gene expression: dramatically induced
HUVEC [9]; lentivirus infected HUVEC, qPCR, listed as RAF1S259A
  Coup-TFII (venous marker) gene expression: slightly inhibiting
HUVEC [10]
  cell proliferation: significantly inhibited

B1: VEGF-C: growth factor from R&D, the key VEGF in lymphatic EC (protein, UniProt P49767 112-227, looked up)
Vascular endothelial growth …: AHYNTEILKSIDNEWRKTQCMPREVCIDVGKEFGVATNTFFKPPCVSVYRCGGCCNSEGLQCMNTSTSYLSKTLFEITVPLSQGPKPVTISFANHTSCRCMSKLDVYRQVHSIIRR
HDLEC [11]
  Sox18 expression: induced
